Test [1] concerns Staphylococcus aureus (ATCC # 29213). The experiment in a line: Broth microdilution MIC, S. aureus. Format: cell-based. The note with it: for MIC: Staphylococcus aureus, ATCC29213. On the procedure: (§1) A broth microdilution assay is used to assess the antimicrobial activity of the compounds. […] Microorganisms tested include Staphylococcus aureus (ATCC # 29213), Enterococcus faecalis (ATCC # 29212), Pseudomonas aeruginosa (ATCC # 27853), and Escherichia coli (ATCC # 25922). The assay is performed in two growth media, Mueller Hinton Broth and Trypticase Soy Broth. A blood (Tsoy/5% sheep blood) agar plate is inoculated from frozen stocks maintained in T soy broth containing 10% glycerol and incubated overnight at 37° C. Colonies are suspended in sterile broth so that the turbidity matches the turbidity of a 0.5 McFarland standard. The inoculum is diluted 1:10 in sterile broth (Mueller Hinton or Trypticase soy) and 195 ul is dispensed per well of a 96-well plate. The compounds to be tested, dissolved in DMSO, are added to the wells in 5 ul volume at the following concentrations: 25, 12.5, 6.25, 3.125, 1.56 and 0.78 ug/ml in duplicate. Additional concentrations are tested if required. 5 ul of DMSO added to duplicate wells are the vehicle control. Serial dilutions of positive control compounds, vancomycin (E. faecalis and S. aureus) and tobramycin (E. coli and P. aeruginosa), are included in each run. After 24 hours of incubation at 37° C., plates are read at OD600 on a Molecular Devices SpectraMax Plus Spectrophotometer. Average OD600 values are computed using SOFTmax Pro Software (Molecular Devices) and MIC values are determined by linear regression analysis using Prism version 3.02 (Graph Pad Software, San Diego). The MIC is defined as the concentration of compound required to produce an OD600 reading equivalent to 10% of the vehicle control reading.

Test [2] concerns Pseudomonas aeruginosa (ATCC # 27853). The experiment in a line: Broth microdilution MIC, P. aeruginosa. The class given is cell-based. The note with it: for PSAE/MH (MIC): Mueller Hinton Broth. On the procedure:
as §1
In general terms: In broth dilution the organism is exposed to a series of concentrations in liquid medium.

For test [3], the system named is Escherichia coli (ATCC # 25922). Nature of the test: Broth microdilution MIC, E. coli. Format: cell-based. To be noted: for MIC: Escherichia coli, ATCC25922. Here is the method: as §1
Another test can be described thus: Weight loss screen. To be noted: 60 mg/kg intraperitoneally. Format: in vivo, Balb/C mice. Here is the method: Balb/C mice (Jackson Labs) are utilized for the initial weight loss screening. Animals are housed in temperature and 12 hour day/night cycle rooms and fed mouse chow and water ad lib. Three mice are utilized for each compound tested with vehicle controls in triplicate per experiment. For the experiments, mice are housed separately for each compound tested three mice to a cage. Compounds are diluted in DMSO at 10 mg/ml and mice are injected intraperitoneally with 60 mg/kg in approximately 100 μl of DMSO or with vehicle alone. Mice are observed and weighed daily; average weights and standard errors are computed with Excel (Microsoft). The experiment continues until treated animals reach their pretreatment weights. Select compounds are tested in animals housed in metabolic cages. Dosing of animals are identical to the screening experiments with three animals to a single metabolic cage. Animal weights, water and food consumption, and urine and feces production are measured daily.

A further test deals with T1, FAS (Homo sapiens, UniProt P49327).
T1 construct: Human FAS was purified from cultured ZR-75-1 human breast cancer cells; endogenous in cells
T1 sequence (P49327 whole entry): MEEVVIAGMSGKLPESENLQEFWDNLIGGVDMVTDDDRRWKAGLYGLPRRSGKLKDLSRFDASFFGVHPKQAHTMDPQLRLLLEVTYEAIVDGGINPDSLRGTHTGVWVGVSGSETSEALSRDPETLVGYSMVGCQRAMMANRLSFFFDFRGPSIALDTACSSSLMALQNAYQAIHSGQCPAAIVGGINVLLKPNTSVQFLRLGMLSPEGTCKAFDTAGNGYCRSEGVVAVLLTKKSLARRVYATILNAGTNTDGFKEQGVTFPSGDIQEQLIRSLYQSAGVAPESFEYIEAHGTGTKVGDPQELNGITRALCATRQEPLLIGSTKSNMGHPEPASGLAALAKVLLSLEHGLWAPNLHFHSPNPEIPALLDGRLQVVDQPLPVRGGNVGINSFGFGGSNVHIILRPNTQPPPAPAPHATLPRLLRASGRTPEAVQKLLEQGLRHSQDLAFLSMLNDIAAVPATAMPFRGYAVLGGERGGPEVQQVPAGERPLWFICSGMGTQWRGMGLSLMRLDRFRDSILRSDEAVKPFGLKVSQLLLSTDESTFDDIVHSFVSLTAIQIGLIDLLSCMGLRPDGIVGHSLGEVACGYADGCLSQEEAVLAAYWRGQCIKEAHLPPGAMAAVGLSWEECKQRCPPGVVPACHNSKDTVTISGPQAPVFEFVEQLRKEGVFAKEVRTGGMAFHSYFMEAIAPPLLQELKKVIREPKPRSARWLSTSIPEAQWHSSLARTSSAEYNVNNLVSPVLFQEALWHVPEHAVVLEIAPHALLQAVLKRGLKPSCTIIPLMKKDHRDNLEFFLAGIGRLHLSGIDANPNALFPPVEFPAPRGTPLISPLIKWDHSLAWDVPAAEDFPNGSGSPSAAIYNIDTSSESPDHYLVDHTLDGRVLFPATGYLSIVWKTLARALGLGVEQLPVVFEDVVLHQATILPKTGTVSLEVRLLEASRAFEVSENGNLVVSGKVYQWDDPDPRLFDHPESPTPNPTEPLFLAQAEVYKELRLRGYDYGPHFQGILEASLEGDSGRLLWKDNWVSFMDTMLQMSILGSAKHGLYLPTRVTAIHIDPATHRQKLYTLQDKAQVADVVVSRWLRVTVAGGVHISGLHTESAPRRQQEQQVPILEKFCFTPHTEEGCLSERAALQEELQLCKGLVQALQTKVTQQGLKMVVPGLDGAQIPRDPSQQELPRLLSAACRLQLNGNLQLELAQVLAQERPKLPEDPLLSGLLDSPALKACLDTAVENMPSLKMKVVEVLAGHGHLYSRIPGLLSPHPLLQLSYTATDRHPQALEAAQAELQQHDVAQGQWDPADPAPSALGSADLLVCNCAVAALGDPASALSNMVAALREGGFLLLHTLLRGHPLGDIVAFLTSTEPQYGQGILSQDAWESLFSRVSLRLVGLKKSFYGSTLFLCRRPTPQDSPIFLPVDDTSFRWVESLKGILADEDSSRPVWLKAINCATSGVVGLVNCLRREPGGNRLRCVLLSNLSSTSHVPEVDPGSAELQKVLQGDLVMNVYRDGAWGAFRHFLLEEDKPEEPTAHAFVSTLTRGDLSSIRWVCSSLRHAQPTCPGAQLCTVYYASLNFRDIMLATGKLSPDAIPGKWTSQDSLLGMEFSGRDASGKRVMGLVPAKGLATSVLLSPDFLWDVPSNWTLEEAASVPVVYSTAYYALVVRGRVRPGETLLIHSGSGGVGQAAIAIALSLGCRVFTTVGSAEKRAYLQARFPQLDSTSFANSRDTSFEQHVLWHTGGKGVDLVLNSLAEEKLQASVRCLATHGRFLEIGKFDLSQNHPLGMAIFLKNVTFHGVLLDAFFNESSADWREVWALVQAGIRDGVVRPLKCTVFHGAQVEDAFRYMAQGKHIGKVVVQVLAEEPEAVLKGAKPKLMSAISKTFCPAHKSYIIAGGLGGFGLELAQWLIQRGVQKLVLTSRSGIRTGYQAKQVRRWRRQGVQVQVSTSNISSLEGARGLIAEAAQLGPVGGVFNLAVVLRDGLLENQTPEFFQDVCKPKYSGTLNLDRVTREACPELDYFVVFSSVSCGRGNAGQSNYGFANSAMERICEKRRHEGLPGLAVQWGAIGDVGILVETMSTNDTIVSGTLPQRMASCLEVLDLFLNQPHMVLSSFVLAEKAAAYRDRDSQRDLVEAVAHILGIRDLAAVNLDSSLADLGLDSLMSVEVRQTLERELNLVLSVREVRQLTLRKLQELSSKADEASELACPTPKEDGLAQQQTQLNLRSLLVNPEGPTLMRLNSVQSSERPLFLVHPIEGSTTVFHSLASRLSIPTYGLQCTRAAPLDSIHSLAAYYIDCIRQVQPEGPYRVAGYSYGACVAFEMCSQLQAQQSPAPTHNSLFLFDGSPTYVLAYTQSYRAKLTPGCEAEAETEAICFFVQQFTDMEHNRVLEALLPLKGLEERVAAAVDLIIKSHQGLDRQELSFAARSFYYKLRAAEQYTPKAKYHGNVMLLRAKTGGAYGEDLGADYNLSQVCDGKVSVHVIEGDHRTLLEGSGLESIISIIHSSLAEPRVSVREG
The experiment in a line: FAS (IC50) marked (SB). Format: biochemical. To be noted: value marked (SB), not defined.

[4] abbreviates: Mueller Hinton Broth, read-out: SA/MH (MIC).

Structures are written as SMILES. Values after ≈ are worked out from the molar mass of the structure shown. Where two headings read alike, the source gives them in different places.

For `COC(=O)c1sc(C(=O)O)cc1O`, in test [1] (setting [4]), the MIC turned out to be 149 µg/mL (≈ 737 µM). The “SA/Tsoy (MIC)” value in test [1] (Trypticase Soy Broth) is “Neg”. In addition, the “PSAE/MH (MIC)” value in test [2] was “Neg”. Besides, the “PSAE/Tsoy (MIC)” value in test [2] (Trypticase Soy Broth) is on record as “Neg”. Moreover, the “Ecoli/MH (MIC)” value in test [3] (Mueller Hinton Broth) was “Neg”. Further, the “Ecoli/Tsoy (MIC)” value in test [3] (Trypticase Soy Broth) is listed as “Neg”.
Turning to `CCCCCCCCNC(=O)c1cc(O)c(C(=O)OC)s1`, the “SA/MH (MIC)” value in test [1] (Mueller Hinton Broth) is listed as “Neg”. The “SA/Tsoy (MIC)” value in test [1] (Trypticase Soy Broth) is “Neg”. For the same molecule, the “PSAE/MH (MIC)” value in test [2] is “Neg”. Moreover, the “PSAE/Tsoy (MIC)” value in test [2] (Trypticase Soy Broth) is given as “Neg”. The “Ecoli/MH (MIC)” value in test [3] (Mueller Hinton Broth) is on record as “Neg”. Besides, in test [3] (Trypticase Soy Broth), the “Ecoli/Tsoy (MIC)” value is “Neg”.
In the case of `C=CCNC(=O)c1cc(O)c(C(=O)OC)s1`, the “Weight Loss” value in “Weight loss screen” (day 1) is listed as 60 mg/kg: +2.3% (day 1). Also, the MIC in test [1] (setting [4]) amounted to 80 µg/mL (≈ 332 µM). Besides, the “SA/Tsoy (MIC)” value in test [1] (Trypticase Soy Broth) is given as “Neg”. For the same molecule, in test [2], the “PSAE/MH (MIC)” value is recorded as “Neg”. The “PSAE/Tsoy (MIC)” value in test [2] (Trypticase Soy Broth) is listed as “Neg”. In addition, in test [3] (Mueller Hinton Broth), the “Ecoli/MH (MIC)” value is given as “Neg”. Further, the “Ecoli/Tsoy (MIC)” value in test [3] (Trypticase Soy Broth) is recorded as “Neg”.
As to `COC(=O)c1sc(C(=O)NNc2ccc(Cl)cc2)cc1O`, the IC50 (commonly the midpoint of a concentration-inhibition curve) at FAS was 305 µM. In addition, the “Weight Loss” value in “Weight loss screen” (day 1) was 60 mg/kg: +1.2% (day 1). For the same molecule, the MIC came out at 66 µg/mL (≈ 202 µM) in test [1] (setting [4]); 227 µg/mL (≈ 695 µM) in test [1] (Trypticase Soy Broth, read-out: SA/Tsoy (MIC)); 136 µg/mL (≈ 416 µM) in test [3] (Mueller Hinton Broth, read-out: Ecoli/MH (MIC)). In test [2], the “PSAE/MH (MIC)” value was “Neg”. In test [2] (Trypticase Soy Broth), the “PSAE/Tsoy (MIC)” value was “Neg”. In addition, the “Ecoli/Tsoy (MIC)” value in test [3] (Trypticase Soy Broth) was “Neg”.
`CCCCCCCCNC(=O)c1cc(O)cs1` had an IC50 on FAS of 325 µM. In the test “Weight loss screen” (day 2), the “Weight Loss” value is reported as 60 mg/kg: 1.6% (day 2). Also, the MIC turned out to be 82 µg/mL (≈ 321 µM) in test [1] (setting [4]); 83 µg/mL (≈ 325 µM) in test [2] (Pseudomonas aeruginosa, ATCC27853, Trypticase Soy Broth, read-out: PSAE/Tsoy (MIC)); 89 µg/mL (≈ 348 µM) in test [3] (Trypticase Soy Broth, read-out: Ecoli/Tsoy (MIC)). Moreover, the “SA/Tsoy (MIC)” value in test [1] (Trypticase Soy Broth) is “Neg”. The “PSAE/MH (MIC)” value in test [2] is “Neg”. Also, the “PSAE/Tsoy (MIC)” value in test [2] (Trypticase Soy Broth) is given as “(MIC) Neg”. Further, the “Ecoli/MH (MIC)” value in test [3] (Mueller Hinton Broth) is “Neg”.

Source of the values: US20100029752A1, “NOVEL COMPOUNDS, PHARMACEUTICAL COMPOSITIONS CONTAINING SAME, AND METHODS OF USE FOR SAME” (priority 2005, published 2010).
